A word on the melting point: it is the temperature of the solid-liquid transition. Consider `Cc1ccc(-n2nc(C(C)(C)C)cc2NC(=O)Nc2ccc(OCCc3ccncc3)c3ccccc23)cn1`, for which the melting point lay in the range of 189 to 190 °C.

Regarding `CC(=O)N(C)c1ccc(-c2ccnc3c(C(=O)c4ccco4)cnn23)cc1`, the melting point was 202 to 204 °C.

Turning to `NN=c1[nH]c2ccc(Br)cc2cc1[N+](=O)[O-]`, the melting point was 187 °C.

Consider `CCc1ccc(-c2nc(-c3ccccc3Cl)nn2C)c(Cl)c1`, for which the melting point lay within 75.5 to 77.5 °C.

`Cn1c(C(=O)NCCCO)c2ccc(Cl)cc2c1-c1ccccc1` yielded a melting point of 155 to 160 °C.

On to `CCOC(=O)C1=C[C@H](c2ccc(C)cc2)[C@H](CO[Si](C)(C)C(C)(C)C)C(=O)O1`, for which the melting point was 60 to 61 °C.

The compound `Cc1nc(-c2ccc3ccc(Cn4c(C(C)C)nc5cc[nH]c(=O)c54)cc3c2)no1` yielded a melting point of 214 to 215 °C.

The compound `CC(C)(C)C(=O)Oc1ccc(-c2nn(C3CCCC3)c3c(F)cccc23)cc1` returned a melting point of 105 °C.

As to `NC(=O)C(CCC(=O)O)N1Cc2c(N)cccc2C1=O` (configuration not stated), the melting point lay within 334 to 336 °C.

As for `COc1cccc(Cc2nc3c(N)ncnc3[nH]2)c1`, the melting point was in the range of 163 to 165 °C.

In turn, `O=C(NCC12CC3CC(CC(C3)C1)C2)c1c(Cl)ccc2nc(N3CCC[C@H](NCCc4nn[nH]n4)C3)ccc12` yielded a melting point of 168 to 172 °C.

Take `CCn1c(=O)n(OCc2ccccc2)c(=O)c2cc(F)c(N3CCCC3)nc21`: the melting point lay in the range of 189 to 190 °C.

Turning to `CC(C)(C)c1cc(C2=NNC(=O)CC2)cc(C(C)(C)C)c1O`, the melting point is 200 to 203 °C.

`CC(=O)c1cc(CBr)cc(CBr)c1` came in with a melting point of 87 to 88 °C.

Take `CCOC(=O)c1cn(NCC(=O)OC(C)(C)C)c2c(F)c(F)c(F)cc2c1=O`: the melting point was in the range of 99.5 to 102 °C.

For `COCCOCCOCCOCCOc1cc(NC(=O)OC(C)(C)C)c(NC(=O)CC(=O)c2cccc(C#N)c2)cc1C#Cc1ccccc1`, the melting point lay in the range of 135 to 136 °C.

`Cc1nc2c(C#N)ncn2c(Cl)c1-c1c(F)cc(F)cc1F` gave a melting point of 183 °C.

Compound `CC(C)(CCCCOc1ccc(NC(=O)CCCn2ccnc2)cc1)C(=O)O` registered a melting point of 150 °C.

In turn, `COc1ccc2ccc(NC(=O)c3cccc(O)c3)nc2n1` had a melting point of 295 °C.

The compound `COc1cc(CCC(=O)O)ccc1OCc1oc(-c2ccc(C(F)(F)F)cc2)nc1C` registered a melting point of 162 to 163 °C.

Consider `O=C(O)c1cc(-n2c(-c3ccccc3)cc3c2CCCC3)cc(Cl)c1O`, for which the melting point is 223 to 225 °C.

The compound `Cn1ccnc1C1(CCCCc2ccc(NC(=O)c3ccccc3)cc2)c2ccccc2-c2ccccc21` came in with a melting point of 146 to 148 °C.

On to `COC(=O)c1cn(Cc2ccc(OCc3ccccc3)cc2)cc1-c1ccccc1`, for which the melting point was 97 to 98 °C.

For the compound `CCOC(=O)C(=O)Nc1cnccn1`, the melting point lay in the range of 134 to 137 °C.

`COc1cc(C=CC(=O)Nc2cnc3c(C)cc(C)cc3c2-c2ccccc2Cl)cc(OC)c1OC(C)=O` displayed a melting point of 152 to 154 °C.

`C=CCC(C)(C)C(O)C(c1cccc(OC)c1)n1ccnc1` (configuration not stated) yielded a melting point of 83 °C.

Compound `CC1(C)OC(=O)Nc2ccc(-c3cc(C#N)cc(C#N)c3)cc21` came in with a melting point of 288 to 289 °C.

In turn, `O=C(O)/C=C/c1ccc(Oc2c(-c3ccccc3)c(CCC(F)(F)F)cc3cc(O)ccc23)cc1` registered a melting point of 118 to 120 °C.

For the compound `CCCN(CCC)C(=O)n1cnc(S(=O)(=O)C(C)C)n1`, the melting point turned out to be 61 °C.

In the case of `O=C(NCC(=O)N(c1ccccc1)c1ccccc1)Nc1cccc([N+](=O)[O-])c1`, the melting point is 180 °C.

For `O=c1c2cc(F)c(Cl)nc2n(-c2ccccc2F)c(=O)n1OCc1ccccc1`, the melting point is 199 to 200 °C.

For `N#Cc1coc2cc(O)ccc2c1=O`, the melting point is 292 to 293 °C.

`COC(=O)c1ccc(C(=O)N2CCN(c3ncccc3[N+](=O)[O-])CC2)nc1` returned a melting point of 129 to 130 °C.

`CCN1CN2C(=N1)C(c1ccccc1Cl)=NCC1=C2S(=O)CC1` (configuration not stated): the melting point was in the range of 199 to 200 °C.

Turning to `CC(C)(C)OC(=O)CC(=O)CO[C@H]1NC(=O)[C@@H]1NC(=O)c1ccccc1`, the melting point turned out to be 142 °C.

In turn, `C[C@@H]1CCC[C@H](C)N1CCN1CCN(CCCN2CCCCC2)C1=C(C#N)C#N` showed a melting point of 106 to 108 °C.

`CCc1cc2[nH]c(=O)c(=O)[nH]c2c(N(CC(=O)OC)S(C)(=O)=O)c1Cl` returned a melting point of 296 to 299 °C.

Regarding `CC(=O)NCCOC(=O)C(Oc1ccc(F)c(C(F)(F)F)c1)c1ccc(Cl)cc1` (configuration not stated), the melting point was determined as 108 °C.

`CCCCCCCCCCc1ccc(C(N)(CO)CO)cc1` registered a melting point of 136 to 137 °C.

Consider `O=C1c2ccccc2N=C(c2ccccc2)C1O` (configuration not stated), for which the melting point was 260 to 262 °C.

The compound `CC(=O)N1CCC(Cl)c2nc3ccccc3c(C)c2C1` (configuration not stated) returned a melting point of under 20 °C.

`O=C(C(=O)c1cccc(Br)c1)c1cc[nH]c1`: the melting point lay in the range of 111 to 113 °C.

`Nc1ccc2c(c1)CC(=O)c1ccccc1O2` registered a melting point of 116 to 117 °C.

For the compound `COC(=O)C(Cc1ccc(OCCc2nc(-c3ccccc3)oc2C)cc1)C(N)=O` (configuration not stated), the melting point worked out at 155 °C.

Turning to `N#Cc1c(N2CCc3ccccc3CC2)nc(CCO)[nH]c1=O`, the melting point fell in the range of 184 to 188 °C.

On to `CCC(=O)NCC1CC1c1cccc2nc(C)sc12` (configuration not stated), for which the melting point lay within 59 to 61 °C.

`Cc1cccc(C)c1C(=O)OCC(N)=O` yielded a melting point of 106 to 108 °C.

As to `CNC(=O)c1c(SC)c2cc(OC)ccc2n1C`, the melting point lay in the range of 137 to 139 °C.

Turning to `O=C(Nc1cc(C(=O)O)cc(-c2ccccc2)c1)OCc1cc2cc(-c3ccccc3)ccc2o1`, the melting point was 174 to 175 °C.

For the compound `O=S(=O)(c1ccc(Cl)cc1)C(c1ccc(C2OCCO2)cn1)c1cc(F)ccc1F` (configuration not stated), the melting point was in the range of 167 to 168 °C.

Consider `CC(C)(O)Cn1c(CCC2(C)OCCO2)nc2c(N)nc3ccccc3c21`, for which the melting point is 231 to 233 °C.

In turn, `Cc1cc(-c2nc3c(C)ccnn3c2-c2ccnc(NC(=O)c3ccc(F)cc3)c2)ccc1F` returned a melting point of 243 to 244 °C.

Compound `CS(=O)(=O)c1ccc(C(Cc2ccc(F)cc2)C(=O)Nc2nc3ccccc3o2)cc1` (configuration not stated) had a melting point of 109 to 110 °C.

On to `O=c1[nH]c(NCCCNc2ncccc2Cl)ncc1Cc1ccc(Cl)cc1`, for which the melting point is 180 to 181 °C.

The compound `CCCCCCCCCCOc1ccc(Br)cc1C12CC3CC(CC(C3)C1)C2` yielded a melting point of 69 to 70 °C.

Compound `COc1cc2c(cc1OC)CN(c1c(C)c(C)c3c(c1C)C(c1ccc(C)cc1)C(C)(C)O3)C2` (configuration not stated) yielded a melting point of 156 to 159 °C.

As to `CC(C)NC(=O)c1c[nH]c2ncc(-c3nn(C)c4cc(Cl)cc(F)c34)nc12`, the melting point was in the range of 347 to 349 °C.

As for `CCn1ncnc1COc1nn2c(-c3cc(F)ccc3F)nncc2c1C(C)(C)CC`, the melting point is 85 to 86 °C.

Turning to `O=C(C[C@@H](CCCC1CCCCC1)c1nc(CNC2CCCC2)co1)NO`, the melting point fell in the range of 124 to 127 °C.

`Cc1ccc(C2c3c(C)c(N4CCN(C(=O)c5ccc(C#N)cc5)CC4)c(C)c(C)c3OC2(C)C)cc1` (configuration not stated): the melting point is 159 to 161 °C.

On to `CCNc1nc(-c2ccccc2)c(-c2ccc(=O)n(C(C)C)n2)s1`, for which the melting point was 167 to 169 °C.

Regarding `CSc1ccc(C(O)CBr)cc1Cl` (configuration not stated), the melting point is 86 to 87 °C.

Regarding `CN=C1SCN(Cc2ccccc2)C(=O)N1C`, the melting point was in the range of 93 to 95 °C.

Compound `CCC(Oc1ccccc1)C(=O)OC1CC(O)C=C2C=CC(C)C(CCC3CC(O)CC(=O)O3)C21` (mixture of isomers) came in with a melting point of 120 to 122 °C.

Take `CCOc1c(C(N)=O)oc2c3ccccc3n(-c3ccccc3)c12`: the melting point lay in the range of 187 to 188 °C.

`CCCCNS(=O)(=O)c1ccc2nc3scc(C)n3c(=O)c2c1`: the melting point lay within 165 to 167 °C.

As for `CCCN1CCN(C(=O)C(Cl)Cl)CC1`, the melting point is 88 °C.

In turn, `COC(=O)C1=C(C)NC(C)=C(c2ccccc2)C1c1cccc(Cl)c1` (configuration not stated) registered a melting point of 191 °C.

Take `CC=CC(=O)NCc1ccccc1`: the melting point lay in the range of 112 to 114 °C.

Compound `CCOc1cc(-c2cc(C(F)(F)F)n3ncc(-c4ccnc(C)c4)c3n2)ccc1C(F)(F)F` returned a melting point of 226 °C.

Compound `COc1nc2cc(Cl)c(Cl)c(N(CCO)S(C)(=O)=O)c2nc1OC` yielded a melting point of 240 to 242 °C.

On to `COc1ccccc1[C@H](c1cccc2ccccc12)[C@@](C)(C#N)C(=O)N1CCN(c2cccc(C)c2)CC1`, for which the melting point lay in the range of 104 to 105 °C.

For the compound `Ic1ccc2c(c1)C(c1ccccc1)=NCc1nnc(Cc3ccccc3)n1-2`, the melting point was in the range of 200 to 201 °C.

`Cc1nc(S(C)(=O)=O)oc1C`: the melting point is 42 °C.

Turning to `CCC(=O)NCC1CC1c1c(Br)ccc2nn(C)cc12` (configuration not stated), the melting point lay within 119 to 121 °C.

In turn, `S=C(NCCc1ccccc1Cl)Nc1nc2ccccc2[nH]1` yielded a melting point of 166 to 169 °C.

In the case of `O=c1c2ccc(Cl)cc2[nH]c2c(=O)n(-c3ccc(F)cc3)nc(O)c12`, the melting point was in the range of 390 to 392 °C.

The compound `CC(C)OC1=CC=CN2C1=NC(=O)C2(Cc1ccccc1)Cc1ccccc1` showed a melting point of 247 to 248 °C.

The compound `CCCCCCCCCCOc1cccc(C(=O)N(CC(=O)O)CC(=O)O)c1` displayed a melting point of 87 to 90 °C.

For the compound `CCCc1nc2c(N)nc3cc(CCc4cccnc4)ccc3c2n1NC(C)C`, the melting point fell in the range of 100 to 103 °C.

`Nc1nc(O)c2c(CCCc3ccc(C(=O)N[C@@H](CCC(=O)O)C(=O)O)cc3)cnc-2[nH]1` showed a melting point of 190 to 193 °C.

The compound `Cc1cccc(NC(=O)NC2N=C(CC(C)C)c3cccc(C)c3N(CC(=O)N3CCCCCCC3)C2=O)c1` (configuration not stated) had a melting point of 132 to 133 °C.

Compound `COc1ccc(C(=O)Nc2ccc(C(C)(C)C(N)=O)cc2)cc1` displayed a melting point of 234 to 235 °C.

`COc1ccc(N(N)c2cc(Cl)nc(Cl)n2)cc1` gave a melting point of 113 to 115 °C.

In turn, `COP(=O)(CC(=O)COc1cccc(Cl)c1)OC` registered a melting point of 78 to 79 °C.

Regarding `Fc1ccccc1-c1c(OCc2nc3n(n2)CCCC3)nn2c(-c3ccccc3F)nncc12`, the melting point fell in the range of 150 to 152 °C.

Consider `CCOc1ccc(-c2cc(C3CCCCC3)nc(C3CCCCC3)c2)cc1`, for which the melting point was found to be 106 °C.
